System: TATA box-containing oligonucleotide (DNA, duplex) GAAGGGGGGCTATAAAAGGGGGTG/CACCCCCTTTTATAGCCCCCCTTC
Assay: EMSA, inhibition of TBP binding to TATA box probe
Conditions: LightShift chemiluminescent EMSA; probe preincubated with BBR; TBP from PC12 nuclear extract displaced; apparent

- IC50: 0.3985 µmol
SMILES: COc1ccc2cc3[n+](cc2c1OC)CCc1cc2c(cc1-3)OCO2

Source: publication PMC3161736 (2011)
